Patent US9546157B2, “Asymmetric piperidinyl-substituted ureas as medicines” (Helsinn Healthcare SA, priority 2014, dated 2017)

What was measured:
GHSR1a [1] = molecular target: T1, GHSR1a (Homo sapiens, UniProt Q92847); experiment: Calcium FLIPR assay, GHSR-1a antagonism (reduction of ghrelin response); format: cell-based; conditions: HEK293/GHSR1a cells, ghrelin 10 nM
T1 construct: expressed in transfected cells; host or cells: HEK293
Method: (§1) The intracellular calcium assay was carried out in a 384-well format FLIPR™ (Molecular Device) HEK293/GHSR1a cell line. Cells were seeded 24 hr prior to the experiments at an optimal density per well. Preincubation with selected calcium dye lasted for 30-60 min at room temperature or 37° C. Test compounds, dissolved in DMSO, were added at the appropriate time and incubated for 15 min followed by the addition of ghrelin with FlexStation or FLIPR. Relative fluorescence was monitored by the FLIPR™ Molecular Device. EC50 and IC50 values were estimated from dose-response data using GraphPad Prism software. To check for GHSR-1a agonism the compound was added at t=20 sec. and the calcium response was followed for 2 minutes. To check for GHSR-1a antagonism the compound and Ghrelin (10 nM) were added to the cells at t=20 sec. and the calcium response was measured for 2 minutes. The potency of the antagonist was calculated by its ability to reduce the ghrelin response. Dose-response curves were made for relevant antagonists.

GHSR1a [2] = molecular target: T1, GHSR1a; experiment: Calcium FLIPR assay, GHSR-1a agonism; format: cell-based; design: Emax: unit not given here; conditions: HEK293/GHSR1a cells
Method: as §1

T1 sequence (Q92847 whole entry): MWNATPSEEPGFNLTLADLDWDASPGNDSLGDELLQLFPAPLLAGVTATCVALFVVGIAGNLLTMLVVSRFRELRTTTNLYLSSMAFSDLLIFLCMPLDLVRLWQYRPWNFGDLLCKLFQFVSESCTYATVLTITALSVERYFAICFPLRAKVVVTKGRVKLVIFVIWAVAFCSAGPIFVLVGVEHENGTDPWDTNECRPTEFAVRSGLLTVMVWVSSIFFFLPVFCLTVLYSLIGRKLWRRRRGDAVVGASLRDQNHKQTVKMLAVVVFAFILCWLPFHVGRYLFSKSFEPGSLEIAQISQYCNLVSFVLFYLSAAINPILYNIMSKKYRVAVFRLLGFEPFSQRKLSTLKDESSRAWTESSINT

| IC50 (GHSR1a [1]) [nM] | EC50 (GHSR1a [2]) [nM] | Emax (GHSR1a [2]) | SMILES |
| --- | --- | --- | --- |
| 57 | > 30000 | – | CC(NC(=O)N(C)C1CCN(C)C1)c1ccc(-c2cccnc2)c(Cl)c1Cl (stereo not drawn) [Compound H0526, 3-(1-(2,3-dichloro-4-(pyridin-3-yl)phenyl)ethyl)-1-methyl-1-(1-methylpyrrolidin-3-yl)urea] |
| 34 | 4 | – | CC(NC(=O)N(C)C1CCN(C)CC1)c1ccc(-c2ccc[nH]2)c(Cl)c1Cl (stereo not drawn) [Compound H0535, 3-(1-(2,3-dichloro-4-(1H-pyrrol-2-yl)phenyl)ethyl)-1-methyl-1-(1-methylpiperidin-4-yl)urea] |
| 9 | > 30000 | – | COC(=O)c1ccc(CN(C(=O)NC(C)c2ccc(-c3cccnc3)c(Cl)c2Cl)C2CCN(C)CC2)cc1 (stereo not drawn) [Compound H0539, methyl 4-((3-(1-(2,3-dichloro-4-(pyridin-3-yl)phenyl)ethyl)-1-(1-methylpiperidin-4-yl)ureido)methyl)benzoate] |
| 154 | > 30000 | – | CC(NC(=O)N(C)C1CCN(C)CC1)c1ccc(-c2cn[nH]c2)c(Cl)c1F (stereo not drawn) [Compound H0571, 3-(1-(3-chloro-2-fluoro-4-(1H-pyrazol-4-yl)phenyl)ethyl)-1-methyl-1-(1-methylpiperidin-4-yl)urea] |
| 180 | > 30000 | – | CC(NC(=O)N(C)C1CCN(C)CC1)c1ccc(-c2cn[nH]c2)c2ccccc12 (stereo not drawn) [Compound H0576, 3-(1-(4-(1H-pyrazol-4-yl)naphthalen-1-yl)ethyl)-1-methyl-1-(1-methylpiperidin-4-yl)urea] |
| 233 | > 30000 | – | CC(NC(=O)N(C)C1CCN(C)CC1)c1ccc(-c2cccnc2)c2ccccc12 (stereo not drawn) [Compound H0577, 1-methyl-1-(1-methylpiperidin-4-yl)-3-(1-(4-(pyridin-3-yl)naphthalen-1-yl)ethyl)urea] |
| 490 | > 30000 | – | CC(NC(=O)N(C)C1CCN(C)CC1)c1ccc(-c2ccncc2)c2ccccc12 (stereo not drawn) [Compound H0578, 1-methyl-1-(1-methylpiperidin-4-yl)-3-(1-(4-(pyridin-4-yl)naphthalen-1-yl)ethyl)urea] |
| 1100 | > 30000 | – | CC(NC(=O)N(C)C1CCCCC1)c1ccc(-c2cncnc2)c(Cl)c1Cl (stereo not drawn) [Compound H0584, 1-cyclohexyl-3-(1-(2,3-dichloro-4-(pyrimidin-5-yl)phenyl)ethyl)-1-methylurea] |
| 4200 | 63000 | – | CC(NC(=O)N(C)C1CCOCC1)c1ccc(-c2cncnc2)c(Cl)c1Cl (stereo not drawn) [Compound H0586, 3-(1-(2,3-dichloro-4-(pyrimidin-5-yl)phenyl)ethyl)-1-methyl-1-(tetrahydro-2H-pyran-4-yl)urea] |
| > 30000 | > 30000 | – | CC(NC(=O)N(C)C1CCC(F)(F)CC1)c1ccc(-c2cncnc2)c(Cl)c1Cl (stereo not drawn) [Compound H0587, 3-(1-(2,3-dichloro-4-(pyrimidin-5-yl)phenyl)ethyl)-1-(4,4-difluorocyclohexyl)-1-methylurea] |
| > 30000 | > 30000 | – | CC(=O)N1CCC(N(C)C(=O)NC(C)c2ccc(-c3cncnc3)c(Cl)c2Cl)CC1 (stereo not drawn) [Compound H0588, 1-(1-acetylpiperidin-4-yl)-3-(1-(2,3-dichloro-4-(pyrimidin-5-yl)phenyl)ethyl)-1-methylurea] |
| 28 | 43 | – | CC(NC(=O)N(C)C1CCN(C)CC1)c1ccc(-c2nnco2)c(Cl)c1Cl (stereo not drawn) [Compound H0595, 3-(1-(2,3-dichloro-4-(1,3,4-oxadiazol-2-yl)phenyl)ethyl)-1-methyl-1-(1-methylpiperidin-4-yl)urea] |
| 63 | 271 | – | CC(NC(=O)N(C)C1CCN(C)CC1)c1ccc(-c2ccoc2)c2ccccc12 (stereo not drawn) [Compound H0598, 3-(1-(4-(furan-3-yl)naphthalen-1-yl)ethyl)-1-methyl-1-(1-methylpiperidin-\4-yl)urea] |
| 212 | 478 | – | CC(NC(=O)N(C)C1CCN(C)CC1)c1ccc(-c2cnc[nH]2)c2ccccc12 (stereo not drawn) [Compound H0599, 3-(1-(4-(1H-imidazol-5-yl)naphthalen-1-yl)ethyl)-1-methyl-1-(1-methylpiperidin-4-yl)urea] |
| 8 | > 30000 | – | CC(NC(=O)N(C)C1CCN(C)CC1)c1ccc(C#C[Si](C)(C)C)c(Cl)c1Cl (stereo not drawn) [Compound H0602, 3-(1-(2,3-dichloro-4-((trimethylsilyl)ethynyl)phenyl)ethyl)-1-methyl-1-(1-methylpiperidin-4-yl)urea] |
| 31 | 96 | 1833 | CC(NC(=O)N(C)C1CCN(C)CC1)c1ccc(-c2cc(F)cc(F)c2)c(Cl)c1Cl (stereo not drawn) [Compound H0605, 3-(1-(2,3-dichloro-3′,5′-difluoro[1,1′-biphenyl]-4-yl)ethyl)-1-methyl-1-(1-methylpiperidin-4-yl)urea] |

| IC50 (GHSR1a [1]) [nM] | EC50 (GHSR1a [2]) [nM] | Emax (GHSR1a [2]) | SMILES |
| --- | --- | --- | --- |
| 24 | 31 | 2336 | COc1cccc(-c2ccc(C(C)NC(=O)N(C)C3CCN(C)CC3)c(Cl)c2Cl)c1 (stereo not drawn) [Compound H0606, 3-(1-(2,3-dichloro-3′-methoxy-[1,1′-biphenyl]-4-yl)ethyl)-1-methyl-1-(1-methylpiperidin-4-yl)urea] |
| 69 | 422 | – | CC(C)Oc1ccc(-c2ccc(C(C)NC(=O)N(C)C3CCN(C)CC3)c(Cl)c2Cl)cn1 (stereo not drawn) [Compound H0608, 3-(1-(2,3-dichloro-4-(6-isopropoxypyridin-3-yl)phenyl)ethyl)-1-methyl-1-(1-methylpiperidin-4-yl)urea] |
| 517 | > 30000 | – | CC(NC(=O)N(C)C1CCN(C)CC1)c1ccc(C#Cc2ccccc2)c(Cl)c1Cl (stereo not drawn) [Compound H0609, 3-(1-(2,3-dichloro-4-(phenylethynyl)phenyl)ethyl)-1-methyl-1-(1-methylpiperidin-4-yl)urea] |
| 2300 | > 30000 | – | COc1cc(OC)cc(-c2ccc(C(C)NC(=O)N(C)C3CCN(C)CC3)c(Cl)c2Cl)c1 (stereo not drawn) [Compound H0611, 3-(1-(2,3-dichloro-3′,5′-dimethoxy-[1,1′-biphenyl]-4-yl)ethyl)-1-methyl-1-(1-methylpiperidin-4-yl)urea] |
| 1600 | > 30000 | – | CC(NC(=O)N(C)C1CCN(C)CC1)c1ccc(-c2cccc(C(N)=O)c2)c(Cl)c1Cl (stereo not drawn) [Compound H0612, 2′,3′-dichloro-4′-(1-(3-methyl-3-(1-methylpiperidin-4-yl)ureido)ethyl)-[1,1′-biphenyl]-3-carboxamide] |
| 132 | 580 | – | CC(NC(=O)N(C)C1CCN(C)CC1)c1ccc(-c2ccc(C#N)nc2)c(Cl)c1Cl (stereo not drawn) [Compound H0616, 3-(1-(2,3-dichloro-4-(6-cyanopyridin-3-yl)phenyl)ethyl)-1-methyl-1-(1-methylpiperidin-4-yl)urea] |
| 40 | 130 | – | CC(NC(=O)N(C)C1CCN(C)CC1)c1ccc(-c2ccc(F)nc2)c(Cl)c1Cl (stereo not drawn) [Compound H0618, 3-(1-(2,3-dichloro-4-(6-fluoropyridin-3-yl)phenyl)ethyl)-1-methyl-1-(1-methylpiperidin-4-yl)urea] |
| 253 | > 30000 | – | CC(NC(=O)N(O)C1CCN(C)CC1)c1ccc(-c2cncnc2)c(Cl)c1Cl (stereo not drawn) [Compound H0624, 3-(1-(2,3-dichloro-4-(pyrimidin-5-yl)phenyl)ethyl)-1-hydroxy-1-(1-methylpiperidin-4-yl)urea] |
| 4 | 15 | 3835 | C=Cc1ccc(C(C)NC(=O)N(C)C2CCN(C)CC2)c(Cl)c1Cl (stereo not drawn) [Compound H0626, 3-(1-(2,3-dichloro-4-vinylphenyl)ethyl)-1-methyl-1-(1-methylpiperidin-4-yl)urea] |
| 59 | 101 | 4433 | CCc1ccc(C(C)NC(=O)N(C)C2CCN(C)CC2)c(Cl)c1Cl (stereo not drawn) [Compound H0628, 3-(1-(2,3-dichloro-4-ethylphenyl)ethyl)-1-methyl-1-(1-methylpiperidin-4-yl)urea] |
| 719 | > 30000 | – | CN1CCC(N(C)C(=O)NC(C#N)c2ccc(-c3cncnc3)c(Cl)c2Cl)CC1 (stereo not drawn) [Compound H0631, 3-(cyano(2,3-dichloro-4-(pyrimidin-5-yl)phenyl)methyl)-1-methyl-1-(1-methylpiperidin-4-yl)urea] |
| 13 | 37 | – | CC(NC(=O)N(C)C1CCN(C)CC1)c1ccc(CF)c(Cl)c1Cl (stereo not drawn) [Compound H0634, 3-(1-(2,3-dichloro-4-(fluoromethyl)phenyl)ethyl)-1-methyl-1-(1-methylpiperidin-4-yl)urea] |
| 1090 | > 30000 | – | COC(=O)c1cncc(-c2ccc(C(C)NC(=O)N(C)C3CCN(C)CC3)c(Cl)c2Cl)c1 (stereo not drawn) [Compound H0635, methyl 5-(2,3-dichloro-4-(1-(3-methyl-3-(1-methylpiperidin-4-yl)ureido)ethyl)phenyl)nicotinate] |
| 57 | > 30000 | – | CC(NC(=O)N(C)C1CCN(C)CC1)c1ccc(-c2cncc(CF)c2)c(Cl)c1Cl (stereo not drawn) [Compound H0638, 3-(1-(2,3-dichloro-4-(5-(fluoromethyl)pyridin-3-yl)phenyl)ethyl)-1-methyl-1-(1-methylpiperidin-4-yl)urea] |
| 103 | > 30000 | – | CC(NC(=O)N(C)C1CCN(C)CC1)c1ccc(C=O)c(Cl)c1Cl (stereo not drawn) [Compound H0640, 3-(1-(2,3-dichloro-4-formylphenyl)ethyl)-1-methyl-1-(1-methylpiperidin-4-yl)urea] |
